Holding throughout (conditions): biochemical, HTRF KinEASE-TK
(Time-resolved FRET reads energy transfer from a long-lived donor to a nearby acceptor.)

Assay [1] concerns the target c-Kit (Homo sapiens (Human), UniProt P10721). The experiment in a line: Inhibition of c-Kit kinase activity (HTRF KinEASE-TK). In kind it is biochemical. How it is done: (§1) Inhibition of c-Kit, PDGFRα, PDGFRβ, CSFIR and FLT3 Kinase Activity
(§2) Compounds were evaluated to determine the potency with which they inhibit the kinase activity of the following panel of tyrosine kinases: c-Kit (SignalChem, Product #: K06-11BG), PDGFRα (SignalChem, Product #: P12-18G), PDGFRβ (SignalChem, Product #: P13-11G), CSFIR (SignalChem, Product #: C74-11G) and FLT3 (Invitrogen, Product #: PR4666C). Activity was determined as a function of phosphorylated biotinylated TK peptide generated by the transfer of phosphate from ATP as measured by the use of the HTRF KinEASE-TK assay kit (Cisbio, Product #: 62TKOPEJ). Levels of phosphorylated biotinylated TK peptide (Part 61TKOBLC of KinEASE assay kit) are quantified by its capture by phosphor-TK-Antibody-Cryptate (Part of KinEASE assay kit) and XL665-labeled Streptavidin (Part 610SAXLG of KinEASE assay kit) followed by measurement of Time-Resolved Fluorescence Resonance Energy Transfer (TR-FRET) signal. On the day of the assay, compounds were solubilized in DMSO and dispensed into a 384-well white Opti-plate (PerkinElmer, catalog #6007290) to generate a 22 point 1:2 titration. Enzyme solution was prepared for each of the tyrosine kinases in 50 mM HEPES, pH 7.4, 5 mM MgCl2 for c-Kit or 10 mM MgCl2 for FLT3, CSFIR, PDGFRa and PDGFRβ, 2 mM MnCl2, 0.01% Brij-35 and 0.01% BSA. Working enzyme concentrations were prepared for c-Kit at 2 nM (2×), PDGFRa and PDGFRß at 10 nM (2×), CSFIR at 2 nM (2×) and FLT3 at 0.4 nM (2×). Five microliters of enzyme dilution of each tyrosine kinase were added to their respective 384-well white Opti-plate pre-dispensed with compound and allowed to incubate for 1 h at rt. Utilizing the same enzyme buffer recipe, 2x substrate mixes were prepared for each enzyme as follows: For c-Kit, 1.6 μM (2×) TK substrate and 16 μM (2×) ATP (Promega, catalog #V915). For PDGFRα, 3.2 μM TK substrate and 1 μM ATP. For PDGFRβ, 3.2 μM TK substrate and 40 μM ATP. For CSFIR, […] TK substrate and 20 μM ATP. For FLT3, 3.2 μM TK substrate and 100 μM ATP. Reactions were initiated by addition of 5 μL of the respective 2x substrate mix to each well of the plates containing the respective tyrosine kinase enzymes and were allowed to proceed for 120 minutes at rt, except for FLT3, the reaction time is 45 min. Following the reaction, 10 μL of detection mix consisting of 0.2 μM (2×) of Streptavidin-XL665 and 2 μM (2×) of TK-Antibody-Cryptate prepared in detection buffer (Part 62SDBRDF of KinEASE assay kit) was added and then allowed to incubate for 60 min. The TR-FRET signal was quantified by measuring the ratio of emission at 665 nm to 620 nm after excitation at 320 nm by reading on a PerkinElmer Envision multimode reader. Compound potencies (IC50 values) were determined using a standard 4-parameter non-linear regression fit.

Assay [2] addresses PDGFRα (Homo sapiens (Human), UniProt P16234). The experiment in a line: Inhibition of PDGFRα kinase activity (HTRF KinEASE-TK). As for the experimental part: as §1, §2
In assay [3] the target is PDGFRβ (Homo sapiens (Human), UniProt P09619). The experiment in a line: Inhibition of PDGFRβ kinase activity (HTRF KinEASE-TK). How it is done:
as §1, §2

Assay [4] addresses CSF1R (Homo sapiens (Human), UniProt P07333). The experiment in a line: Inhibition of CSF1R kinase activity (HTRF KinEASE-TK). As for the experimental part: as §1, §2

The source of these data is US20250145606A1 (Arcus Biosciences, Inc., priority 2023, published 2025).

CSF1R, sequence (P07333 20-972): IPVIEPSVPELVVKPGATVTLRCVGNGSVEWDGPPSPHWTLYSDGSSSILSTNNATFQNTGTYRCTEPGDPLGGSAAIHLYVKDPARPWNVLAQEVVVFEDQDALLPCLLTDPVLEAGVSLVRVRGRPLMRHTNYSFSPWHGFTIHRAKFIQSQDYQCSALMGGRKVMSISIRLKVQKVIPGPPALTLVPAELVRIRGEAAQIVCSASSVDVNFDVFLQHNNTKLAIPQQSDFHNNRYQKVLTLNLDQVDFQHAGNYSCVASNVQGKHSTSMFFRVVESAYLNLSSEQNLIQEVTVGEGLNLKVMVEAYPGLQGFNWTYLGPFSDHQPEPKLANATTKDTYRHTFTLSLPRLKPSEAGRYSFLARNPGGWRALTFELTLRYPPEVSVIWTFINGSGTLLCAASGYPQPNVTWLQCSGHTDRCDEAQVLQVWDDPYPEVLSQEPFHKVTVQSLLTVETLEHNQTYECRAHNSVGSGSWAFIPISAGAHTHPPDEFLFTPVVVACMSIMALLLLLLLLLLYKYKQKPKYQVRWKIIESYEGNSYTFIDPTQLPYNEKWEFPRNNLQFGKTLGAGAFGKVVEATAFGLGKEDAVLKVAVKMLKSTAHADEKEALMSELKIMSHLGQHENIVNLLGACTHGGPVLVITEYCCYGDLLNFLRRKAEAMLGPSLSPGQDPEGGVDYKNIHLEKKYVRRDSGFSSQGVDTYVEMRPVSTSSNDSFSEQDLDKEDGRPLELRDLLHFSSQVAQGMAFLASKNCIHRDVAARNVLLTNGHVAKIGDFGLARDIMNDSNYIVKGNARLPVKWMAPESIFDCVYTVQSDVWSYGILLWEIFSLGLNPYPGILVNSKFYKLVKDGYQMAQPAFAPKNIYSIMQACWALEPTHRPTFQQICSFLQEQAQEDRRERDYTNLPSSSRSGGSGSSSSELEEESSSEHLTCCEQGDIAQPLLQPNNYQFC
PDGFRβ, sequence (P09619 33-1106): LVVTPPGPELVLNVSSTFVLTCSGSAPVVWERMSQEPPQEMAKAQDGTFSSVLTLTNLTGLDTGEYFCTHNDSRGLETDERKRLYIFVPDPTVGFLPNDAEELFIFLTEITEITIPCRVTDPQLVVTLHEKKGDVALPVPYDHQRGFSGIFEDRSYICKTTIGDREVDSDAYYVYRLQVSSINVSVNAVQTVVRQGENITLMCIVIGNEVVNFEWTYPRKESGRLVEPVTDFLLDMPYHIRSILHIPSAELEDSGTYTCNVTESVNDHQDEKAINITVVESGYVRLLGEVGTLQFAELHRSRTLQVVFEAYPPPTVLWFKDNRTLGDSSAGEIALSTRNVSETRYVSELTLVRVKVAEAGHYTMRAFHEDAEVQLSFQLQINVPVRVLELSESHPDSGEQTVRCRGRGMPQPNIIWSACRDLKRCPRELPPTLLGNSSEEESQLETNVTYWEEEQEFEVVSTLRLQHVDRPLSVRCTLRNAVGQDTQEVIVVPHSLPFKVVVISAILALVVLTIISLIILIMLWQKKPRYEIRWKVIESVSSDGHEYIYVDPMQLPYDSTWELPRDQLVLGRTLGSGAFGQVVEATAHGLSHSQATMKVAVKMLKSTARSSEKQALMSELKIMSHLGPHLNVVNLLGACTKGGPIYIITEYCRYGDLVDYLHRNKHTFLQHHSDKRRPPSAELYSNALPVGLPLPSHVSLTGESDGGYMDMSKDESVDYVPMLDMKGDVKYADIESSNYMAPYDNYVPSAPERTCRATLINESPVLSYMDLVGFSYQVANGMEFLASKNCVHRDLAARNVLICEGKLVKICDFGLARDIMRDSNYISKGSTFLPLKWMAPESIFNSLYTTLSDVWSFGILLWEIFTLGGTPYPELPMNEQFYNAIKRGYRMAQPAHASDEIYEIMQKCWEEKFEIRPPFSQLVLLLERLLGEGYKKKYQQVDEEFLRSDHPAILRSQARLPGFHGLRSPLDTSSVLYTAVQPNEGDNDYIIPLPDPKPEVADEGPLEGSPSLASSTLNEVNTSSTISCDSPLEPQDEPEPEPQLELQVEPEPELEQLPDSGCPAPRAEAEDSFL
PDGFRα, sequence (P16234 24-1089): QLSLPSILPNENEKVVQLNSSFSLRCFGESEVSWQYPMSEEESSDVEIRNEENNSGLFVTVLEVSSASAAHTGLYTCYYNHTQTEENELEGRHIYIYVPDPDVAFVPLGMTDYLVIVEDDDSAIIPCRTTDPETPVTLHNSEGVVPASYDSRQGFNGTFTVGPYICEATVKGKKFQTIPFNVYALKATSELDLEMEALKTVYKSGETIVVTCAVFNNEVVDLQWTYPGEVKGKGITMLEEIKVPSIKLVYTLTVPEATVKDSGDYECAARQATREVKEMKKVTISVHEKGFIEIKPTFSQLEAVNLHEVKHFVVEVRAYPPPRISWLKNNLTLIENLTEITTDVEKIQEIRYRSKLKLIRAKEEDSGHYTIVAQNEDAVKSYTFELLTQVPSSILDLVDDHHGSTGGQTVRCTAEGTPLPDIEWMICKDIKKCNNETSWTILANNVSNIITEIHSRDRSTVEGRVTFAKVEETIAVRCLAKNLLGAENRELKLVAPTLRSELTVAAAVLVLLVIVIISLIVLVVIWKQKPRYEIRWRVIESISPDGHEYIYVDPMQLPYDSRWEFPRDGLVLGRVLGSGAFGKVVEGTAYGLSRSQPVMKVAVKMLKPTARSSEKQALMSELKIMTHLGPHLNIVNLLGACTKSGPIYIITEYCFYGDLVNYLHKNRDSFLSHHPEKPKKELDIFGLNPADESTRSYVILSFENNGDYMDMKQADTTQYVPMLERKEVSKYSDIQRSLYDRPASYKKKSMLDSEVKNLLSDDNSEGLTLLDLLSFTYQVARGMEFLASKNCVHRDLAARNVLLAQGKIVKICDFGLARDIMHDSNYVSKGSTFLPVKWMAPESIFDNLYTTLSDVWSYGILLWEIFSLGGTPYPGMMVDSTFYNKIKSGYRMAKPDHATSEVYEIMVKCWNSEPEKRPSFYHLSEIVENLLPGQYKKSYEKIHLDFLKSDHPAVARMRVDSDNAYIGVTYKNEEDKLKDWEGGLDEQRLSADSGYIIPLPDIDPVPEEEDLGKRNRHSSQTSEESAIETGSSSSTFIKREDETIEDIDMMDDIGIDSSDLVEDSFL
c-Kit, sequence (P10721 26-976): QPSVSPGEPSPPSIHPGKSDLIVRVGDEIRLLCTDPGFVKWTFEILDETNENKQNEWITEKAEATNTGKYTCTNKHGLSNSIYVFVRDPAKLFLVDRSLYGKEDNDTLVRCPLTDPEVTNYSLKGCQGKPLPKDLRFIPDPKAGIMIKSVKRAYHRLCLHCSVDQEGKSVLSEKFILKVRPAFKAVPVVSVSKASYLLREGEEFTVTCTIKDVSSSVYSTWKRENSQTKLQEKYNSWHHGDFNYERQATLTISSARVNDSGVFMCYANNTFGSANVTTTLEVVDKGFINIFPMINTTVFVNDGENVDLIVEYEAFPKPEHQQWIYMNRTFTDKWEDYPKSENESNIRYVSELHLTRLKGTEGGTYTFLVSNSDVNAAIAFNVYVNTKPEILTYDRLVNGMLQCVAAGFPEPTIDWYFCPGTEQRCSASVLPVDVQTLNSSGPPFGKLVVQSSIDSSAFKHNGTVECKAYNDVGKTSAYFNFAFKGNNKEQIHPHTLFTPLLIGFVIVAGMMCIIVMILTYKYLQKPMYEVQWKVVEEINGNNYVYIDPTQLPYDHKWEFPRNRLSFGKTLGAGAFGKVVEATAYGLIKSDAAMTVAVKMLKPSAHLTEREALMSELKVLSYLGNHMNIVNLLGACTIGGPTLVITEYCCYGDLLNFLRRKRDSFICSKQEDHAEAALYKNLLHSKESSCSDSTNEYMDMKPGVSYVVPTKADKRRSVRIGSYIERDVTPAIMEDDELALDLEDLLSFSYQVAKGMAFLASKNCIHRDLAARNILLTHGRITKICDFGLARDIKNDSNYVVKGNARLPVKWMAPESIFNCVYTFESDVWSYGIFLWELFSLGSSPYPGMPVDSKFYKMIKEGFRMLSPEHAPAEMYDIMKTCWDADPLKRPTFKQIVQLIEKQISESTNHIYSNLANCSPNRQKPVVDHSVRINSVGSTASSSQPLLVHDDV

For `Cc1cc(F)c(C(=O)Nc2ccc(OC3CC3)cn2)cc1NC(=O)c1cnc(NC(=O)[C@H]2CCOC2)s1` [Example 108, N-[5-[(5-cyclopropyloxypyridin-2-yl)carbamoyl]-4-fluoro-2-methylphenyl]-2-[[(3S)-oxolane-3-carbonyl]amino]-1,3-thiazole-5-carboxamide], the concentration for half-maximal inhibition (IC50) in assay [1] was under 100 nM; in assay [2], over 1000 nM; in assay [3], over 1000 nM; in assay [4] it was over 1000 nM.
Consider `Cc1cc(F)c(C(=O)Nc2ccc(OC3CC3)cn2)cc1NC(=O)c1cnc(NC(=O)C(C)(C)O)s1` [Example 109, N-[5-[(5-cyclopropyloxypyridin-2-yl)carbamoyl]-4-fluoro-2-methylphenyl]-2-[(2-hydroxy-2-methylpropanoyl)amino]-1,3-thiazole-5-carboxamide], for which the IC50 was 100 to 1000 nM in assay [1], over 1000 nM in assay [2], over 1000 nM in assay [3] and over 1000 nM in assay [4].
As to `Cc1cc(F)c(C(=O)Nc2ccc(C(C)(O)C(F)(F)F)cn2)cc1NC(=O)c1cnc(N)s1` (stereo not drawn) [Example 111, 2-Amino-N-[4-fluoro-2-methyl-5-[[5-(1,1,1-trifluoro-2-hydroxypropan-2-yl)pyridin-2-yl]carbamoyl]phenyl]-1,3-thiazole-5-carboxamide], the IC50 in assay [1], in assay [2], in assay [3] and in assay [4] was under 100 nM throughout.
Take `Cc1cc(F)c(C(=O)Nc2cc3c(cn2)COC3)cc1NC(=O)c1cnc(N)s1` [Example 112, 2-Amino-N-[5-(1,3-dihydrofuro [3,4-c]pyridin-6-ylcarbamoyl)-4-fluoro-2-methylphenyl]-1,3-thiazole-5-carboxamide]: the IC50 is under 100 nM in assay [1], over 1000 nM in assay [2], 100 to 1000 nM in assay [3] and 100 to 1000 nM in assay [4].
`Cc1cc(F)c(C(=O)Nc2ccc(C(C)(C)O)cn2)cc1NC(=O)c1cnc(N)s1` [Example 113, 2-Amino-N-[4-fluoro-5-[[5-(2-hydroxypropan-2-yl)pyridin-2-yl]carbamoyl]-2-methylphenyl]-1,3-thiazole-5-carboxamide]: the 50% inhibitory concentration (IC50) in assay [1] was under 100 nM; in assay [2], 100 to 1000 nM; in assay [3] it was under 100 nM; in assay [4], 100 to 1000 nM.
Consider `Cc1cc(F)c(C(=O)Nc2ccc(S(C)(=O)=O)cn2)cc1NC(=O)c1cnc(N)s1` [Example 116, 2-Amino-N-[4-fluoro-2-methyl-5-[(5-methylsulfonylpyridin-2-yl)carbamoyl]phenyl]-1,3-thiazole-5-carboxamide], for which the IC50 in assay [1] was under 100 nM; in assay [2] it was over 1000 nM; in assay [3] it was 100 to 1000 nM; in assay [4], 100 to 1000 nM.
In the case of `Cc1cc(F)c(C(=O)Nc2ccc(C3(C#N)CC3)nn2)cc1NC(=O)c1cnc(N)s1` [Example 119, 2-Amino-N-[5-[[6-(1-cyanocyclopropyl)pyridazin-3-yl]carbamoyl]-4-fluoro-2-methylphenyl]-1,3-thiazole-5-carboxamide], the IC50 is under 100 nM in assay [1], over 1000 nM in assay [2], 100 to 1000 nM in assay [3] and 100 to 1000 nM in assay [4].
On to `Cc1cc(F)c(C(=O)NC2CN(C(=O)C3CC3)C2)cc1NC(=O)c1cnc(N)s1` [Example 121, 2-Amino-N-[5-[[1-(cyclopropanecarbonyl)azetidin-3-yl]carbamoyl]-4-fluoro-2-methylphenyl]-1,3-thiazole-5-carboxamide], for which the IC50 is under 100 nM in assay [1], over 1000 nM in assay [2], over 1000 nM in assay [3] and over 1000 nM in assay [4].
For the molecule `Cc1cc(F)c(C(=O)NC2CN(c3ncccn3)C2)cc1NC(=O)c1cnc(N)s1` [Example 125, 2-Amino-N-[4-fluoro-2-methyl-5-[(1-pyrimidin-2-ylazetidin-3-yl)carbamoyl]phenyl]-1,3-thiazole-5-carboxamide], the IC50 was under 100 nM in assay [1], over 1000 nM in assay [2], over 1000 nM in assay [3] and over 1000 nM in assay [4].
As for `Cc1cc(F)c(C(=O)N[C@H]2C[C@@H](C#N)C2)cc1NC(=O)c1cnc(N)s1` [Example 126, 2-Amino-N-[5-[(3-cyanocyclobutyl)carbamoyl]-4-fluoro-2-methylphenyl]-1,3-thiazole-5-carboxamide], the IC50 in assay [1] was under 100 nM; in assay [2], 100 to 1000 nM; in assay [3], over 1000 nM; in assay [4], over 1000 nM.
In the case of `Cc1cc(F)c(C(=O)N[C@H]2C[C@@H](C(N)=O)C2)cc1NC(=O)c1cnc(N)s1` [Example 127, 2-Amino-N-[5-[(3-carbamoylcyclobutyl)carbamoyl]-4-fluoro-2-methylphenyl]-1,3-thiazole-5-carboxamide], the IC50 is 100 to 1000 nM in assay [1], over 1000 nM in assay [2], over 1000 nM in assay [3] and over 1000 nM in assay [4].
Consider `Cc1cc(F)c(C(=O)Nc2ccc(OC3CC3)cc2F)cc1NC(=O)c1cnc(N)s1` [Example 128], for which the IC50 in assay [1] is under 100 nM; in assay [2], 100 to 1000 nM; in assay [3], under 100 nM; in assay [4], 100 to 1000 nM.
Regarding `Cc1cc(F)c(C(=O)Nc2ccn(C(C)(C)C)n2)cc1NC(=O)c1cnc(N)s1` [Example 141, 2-Amino-N-[5-[(1-tert-butylpyrazol-3-yl)carbamoyl]-4-fluoro-2-methylphenyl]-1,3-thiazole-5-carboxamide], the IC50 is under 100 nM in assay [1], under 100 nM in assay [2], under 100 nM in assay [3] and 100 to 1000 nM in assay [4].
Turning to `Cc1cc(F)c(C(=O)Nc2ccn(CCO)n2)cc1NC(=O)c1cnc(N)s1` [Example 144, 2-Amino-N-[4-fluoro-5-[[1-(2-hydroxyethyl)pyrazol-3-yl]carbamoyl]-2-methylphenyl]-1,3-thiazole-5-carboxamide], the IC50 in assay [1] was under 100 nM; in assay [2], over 1000 nM; in assay [3], over 1000 nM; in assay [4], over 1000 nM.
On to `Cc1cc(F)c(C(=O)Nc2nc3c(s2)COCC3)cc1NC(=O)c1cnc(N)s1` [Example 145, 2-Amino-N-[5-(6,7-dihydro-4H-pyrano[4,3-d][1,3]thiazol-2-ylcarbamoyl)-4-fluoro-2-methylphenyl]-1,3-thiazole-5-carboxamide], for which the IC50 is under 100 nM in assay [1], over 1000 nM in assay [2], 100 to 1000 nM in assay [3] and 100 to 1000 nM in assay [4].
For `Cc1cc(F)c(C(=O)Nc2ncc(C(C)C)s2)cc1NC(=O)c1cnc(N)s1` [Example 146, 2-Amino-N-[4-fluoro-2-methyl-5-[(5-propan-2-yl-1,3-thiazol-2-yl)carbamoyl]phenyl]-1,3-thiazole-5-carboxamide], the IC50 in assay [1], in assay [2], in assay [3] and in assay [4] was under 100 nM in each case.
With `Cc1cc(F)c(C(=O)Nc2ccn(CC3CC3)n2)cc1NC(=O)c1cnc(N)s1` [Example 151, 2-Amino-N-[5-[[1-(cyclopropylmethyl)pyrazol-3-yl]carbamoyl]-4-fluoro-2-methylphenyl]-1,3-thiazole-5-carboxamide], the half-maximal inhibitory concentration (IC50) in assay [1] is under 100 nM; in assay [2] it was 100 to 1000 nM; in assay [3], under 100 nM; in assay [4], 100 to 1000 nM.
As for `Cc1cc(F)c(C(=O)Nc2ccn(CC(C)(C)O)n2)cc1NC(=O)c1cnc(N)s1` [Example 153, 2-Amino-N-[4-fluoro-5-[[1-(2-hydroxy-2-methylpropyl)pyrazol-3-yl]carbamoyl]-2-methylphenyl]-1,3-thiazole-5-carboxamide], the IC50 in assay [1] was under 100 nM; in assay [2] it was over 1000 nM; in assay [3] it was over 1000 nM; in assay [4] it was over 1000 nM.

By IC50 is commonly meant the concentration needed to halve the response being measured.
